Laboratory results taken from publication PMC10846240, “Pharmacokinetic/pharmacodynamic integration of amphenmulin: a novel pleuromutilin derivative against Mycoplasma gallisepticum” (Microbiology Spectrum, 2023).
In brackets after ≈: the same amount, converted by molar mass. Like-named read-outs stand apart in the source and are kept apart here.

Columns and labels:
Assay type in all cases: cell-based, Mycoplasma gallisepticum
[1] = tested on: M. gallisepticum strain S6; experiment: Static time-kill curves and Sigmoid Emax fit of kill rate; settings: for EC50: Mycoplasmoides gallisepticum, read-out: EC50 (concentration at half-maximal kill rate); for decrease of mycoplasma counts / type of effect: static; for decrease of mycoplasma counts: within 48 h
Protocol: Based on the MIC value from broth microdilution method, 7 mL blank medium, 0.2 mL amphenmulin solution, and 0.8 mL M. gallisepticum suspension were taken into 10-mL Celine bottles to make the final mycoplasma count of 10^7 CFU/mL, as well as final concentrations of amphenmulin of 1, 2, 4, 6, 8, 16, 32, and 64 MIC, respectively. Growth control (without drug) and negative control (blank medium) were also set up for culture. Then at 0, 6, 9, 12, 24, 36, and 48 h, 100 µL of each culture was taken for counting using the aforementioned method, with a lower limit of 100 CFU/mL. The experiment was repeated three times.
The efficacy of amphenmulin against M. gallisepticum was measured by the kill rate per unit of time. Considering the growth of M. gallisepticum observed in preliminary experiments, this study selected seven time periods of 0–24, 0–36, 0–48, 6–24, 6–36, 6–48, and 12–48 h to calculate the kill rates of amphenmulin. The Sigmoid Emax model in Phoenix was used to fit the relationship between mean kill rate and drug concentration, which is shown below:
E, kill rate of amphenmulin against M. gallisepticum within a period; E0, change rate of M. gallisepticum in the control group (without drug); Emax, maximum kill rate within a period; Ce, concentration of amphenmulin; EC50, drug concentration at half-maximal kill rate; N, Hill coefficient, reflecting the slope of the kill rate–concentration curve.

[2] = tested on: M. gallisepticum; experiment: In vitro dynamic model (one-compartment, first-order elimination)
Protocol: According to previous reports ([21][–][23]), an in vitro model compatible with M. gallisepticum growth and amphenmulin pharmacokinetics was developed ([24]). It comprised a reservoir chamber containing fresh, drug-free medium; a reaction chamber with a three-necked flask where amphenmulin interacts with M. gallisepticum, containing 300 mL of medium in the outer chamber (external compartment, EC) and 10 mL of M. gallisepticum culture (10^7 CFU/mL) in a semipermeable membrane chamber (internal compartment, IC); and a waste chamber collecting effluent, which were connected via tubing and controlled by a peristaltic pump (Fig. 2). In this model, the flow rate was calculated as 1.63 mL/min from the reaction chamber volume and amphenmulin’s elimination half-life (T1/2Ke) after intravascular administration in chickens, enabling dynamic changes in drug concentrations that simulate amphenmulin elimination in chickens and its activity against M. gallisepticum. The in vitro elimination of amphenmulin followed first-order kinetics:
where C0 is the initial amphenmulin concentration, C is the amphenmulin concentration at time t, k is the elimination rate constant, and t is the time after dosing. […]
The determination of amphenmulin in the medium referenced our laboratory’s method for extracting tiamulin ([25]) and was also detected by the HPLC-MS/MS method mentioned in the PK section.

[3] = tested on: M. gallisepticum; experiment: PK/PD integration, inhibitory Sigmoid Emax model; settings: for Emax: inhibitory Emax model
Protocol: Phoenix software was used to analyze the in vitro concentration–time data of amphenmulin and calculate the AUC and peak concentration (Cmax), which were combined with MIC to obtain PK/PD parameters. Concurrently, the anti-mycoplasma effect was derived from the dynamic time–kill curve, which was analyzed with the PK/PD index using an inhibitory Sigmoid Emax model as follows:
E=E0−(E0−Emax)×CeN/EC50N+CeN
E, anti-mycoplasma effect, the change in M. gallisepticum counts during 24 h of cultivation; E0, M. gallisepticum change in control (without drug); Emax, maximal effect produced by amphenmulin against M. gallisepticum during 24 h; Ce, PK/PD parameters (AUC/MIC or Cmax/MIC); EC50, the Ce value needed to produce 50% of maximal effect; N, Hill coefficient, the slope of the fitted curve.

C=C[C@]1(C)C[C@@H](OC(=O)CSc2ccccc2N)[C@]2(C)[C@H](C)CC[C@]3(CCC(=O)[C@H]32)[C@@H](C)[C@@H]1O [amphenmulin, 22-(2-amino-phenylsulfanyl)-22-deoxypleuromutilin]
EC50 ([1]; S6, period 0–24 h): 0.0325 µg/mL (≈ 0.0669 µM)
EC50 ([1]; S6, period 0–36 h): 0.0914 µg/mL (≈ 0.188 µM)
EC50 ([1]; S6, period 0–48 h): 0.913 µg/mL (≈ 1.88 µM)
EC50 ([1]; S6, period 6–24 h): 0.0082 µg/mL (≈ 0.0169 µM)
EC50 ([1]; S6, period 6–36 h): 0.0053 µg/mL (≈ 0.0109 µM)
EC50 ([1]; S6, period 6–48 h): 0.0526 µg/mL (≈ 0.108 µM)
EC50 ([1]; S6, period 12–48 h): 0.524 µg/mL (≈ 1.08 µM)
Emax (maximum kill rate) ([1]; period 0–24 h): 0.1261 h⁻¹
Emax (maximum kill rate) ([1]; period 0–36 h): 0.1817 h⁻¹
Emax (maximum kill rate) ([1]; period 0–48 h): 0.3277 h⁻¹
Emax (maximum kill rate) ([1]; period 6–24 h): 0.0805 h⁻¹
Emax (maximum kill rate) ([1]; period 6–36 h): 0.0821 h⁻¹
Emax (maximum kill rate) ([1]; period 6–48 h): 0.1743 h⁻¹
Emax (maximum kill rate) ([1]; period 12–48 h): 0.2880 h⁻¹
decrease of mycoplasma counts ([1]; 1 MIC): 0.44 Log10CFU/mL
type of effect ([1]; 2–32 MIC): bacteriostatic effect
decrease of mycoplasma counts ([1]; 2–32 MIC): 0.57–2.7 Log10CFU/mL
type of effect ([1]; 64 MIC): bactericidal effect
decrease of mycoplasma counts ([1]; 64 MIC): 3.85 Log10CFU/mL
mycoplasma numbers at the highest dose ([2]; counting limit): < 100 CFU/mL
maximum decrease of M. gallisepticum counts within 0–72 h ([2]; doses of 0.1–0.5 μg/mL): ≤ 2.82 Log10CFU/mL
AUC24 h/MIC target value ([3]; for a decrease of 1 Log10CFU/mL of M. gallisepticum): 904.05 h
Emax ([3]; index AUC24 h/MIC): −2.4214 Log10CFU/mL
Emax ([3]; index Cmax/MIC): −3.3571 Log10CFU/mL
